Reference: PubChem BioAssay (NCI)
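Briefly, cells in 96-well plates were exposed to five compound concentrations for 48 h, and endpoints were estimated by linear interpolation. Abbreviation: GI50, concentration required for 50% inhibition of growth. TGI is the concentration that stops growth completely.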

What was measured:
Assay in all cases: DTP human tumour cell line panel, 48 h
[1] = tested on: NCI/ADR-RES ovarian
[2] = tested on: NCI-H522 lung
[3] = tested on: CAKI-1 renal
[4] = tested on: HCC-2998 colon
[5] = tested on: U251 CNS
[6] = tested on: A549 NSCLC
[7] = tested on: CCRF-CEM leukemia
[8] = tested on: T-47D breast
[9] = tested on: HOP-62 NSCLC
[10] = tested on: SF-295 CNS

Compound | TGI [1] [µM] | TGI [2] [µM] | TGI [3] [µM] | TGI [4] [µM] | TGI [5] [µM] | TGI [6] [µM] | TGI [7] [µM] | TGI [8] [µM] | TGI [9] [µM] | TGI [10] [µM] | GI50 [1] [µM] | GI50 [2] [µM] | GI50 [3] [µM] | GI50 [4] [µM] | GI50 [5] [µM] | GI50 [6] [µM] | GI50 [7] [µM] | GI50 [8] [µM] | GI50 [9] [µM] | GI50 [10] [µM]
CCOc1cc2c(=O)oc3c(OC)ccc4ccc(c1OC)c2c43 | > 100 | 90.7 | > 100 | > 100 | > 100 | > 100 | > 100 | > 100 | > 100 | > 100 | – | – | – | – | – | – | – | – | – | –
COc1cc(C(=O)O/N=C(\N)Cc2cccc3ccccc23)cc(OC)c1OC | 59.2 | 3.7 | 19.5 | 34.3 | 25.8 | 23.8 | 23.3 | 12.5 | 18.7 | 13.7 | 7.02 | 1.87 | 5.91 | 17.2 | 12 | 7.67 | 3.62 | 2.95 | 4.42 | 3.49
CN(C)CC1CCCCCC(Br)C1=O (stereo not drawn) | 37.8 | 8.72 | 16 | 25.7 | 43 | > 100 | 3.15 | > 54.6 | 47.3 | > 100 | – | – | – | – | – | – | – | – | – | –
O=C(Nc1ccc(Nc2ccncc2)cc1)c1ccc(Nc2ccnc3ccc([N+](=O)[O-])cc23)cc1[N+](=O)[O-] | > 100 | 68.6 | > 83.2 | > 100 | > 24.8 | > 44.2 | > 50.6 | 34.9 | > 100 | 98.3 | 12.8 | 21.9 | > 39.6 | 32.9 | 2.76 | 3.95 | 18.6 | 6.39 | 24.8 | 6.69
O=C(Cn1c(C(=O)c2ccc(Cl)cc2)nc(-c2ccccc2)c1-c1ccccc1)c1ccc(Cl)cc1 | > 100 | > 100 | > 100 | > 100 | > 100 | > 100 | > 100 | > 100 | > 100 | > 100 | > 100 | > 100 | > 100 | > 100 | > 100 | > 100 | > 100 | > 100 | > 100 | > 100
O=C(Cc1csc2nc(-c3ccc(Br)cc3)cn12)N/N=C/c1ccc(Cl)cc1Cl | 52.3 | > 100 | > 100 | 44.8 | 44.3 | 37.5 | > 100 | > 100 | 35 | > 100 | 17.2 | 25.8 | 36.1 | 20 | 20.6 | 16.8 | 40 | > 100 | 16.6 | 34.7
COc1ccc(/C=N\NC(=O)c2ccc3nc(-c4ccc(Cl)cc4)[nH]c3c2)cc1 | > 100 | 81.5 | 6.03 | 6.44 | 5.22 | 5.65 | > 100 | 4.83 | 6.37 | 5.05 | 7.81 | 7.6 | 2.1 | 2.57 | 2.43 | 2.46 | 4.9 | 1.94 | 1.88 | 2.23
O=C(c1ccco1)c1nc2cc(C(F)(F)F)ccc2[n+]([O-])c1C(F)(F)F | > 100 | > 100 | > 100 | > 100 | > 100 | > 100 | > 100 | > 100 | > 100 | > 100 | 32.4 | 34.1 | > 100 | > 100 | 37 | > 100 | 60.2 | 19.2 | 71.7 | 51.3
COC1C(CO)OC(n2c3c(Cl)cccc3c3c4c(c5c6cccc(Cl)c6[nH]c5c32)C(=O)NC4=O)C(O)C1O (stereo not drawn) | > 100 | 10.5 | 0.565 | > 20 | 5.12 | 8.2 | > 100 | > 21.1 | 6.63 | 4.32 | – | – | – | – | – | – | – | – | – | –
O=C1CC(c2ccsc2)c2snc(-c3ccc(Cl)cc3)c2N1 (stereo not drawn) | 2.37 | 13.5 | > 100 | > 100 | > 100 | > 100 | – | > 100 | 35.2 | 19.7 | 0.364 | 0.626 | 1.03 | 1.99 | 1.75 | 0.626 | – | 0.537 | 2.63 | 1.87
COc1ccc2c(c1)[nH]c(=O)c1c3cc(OC)c(OC)cc3cn21 | < 0.0133 | 0.0125 | < 0.01 | 0.0768 | 1.35 | 1.41 | 1.12 | 35.6 | 21 | 0.409 | < 0.01 | < 0.01 | < 0.01 | < 0.01 | < 0.01 | < 0.01 | < 0.0114 | 15.4 | 0.0936 | < 0.01
CCOC(=O)c1ccccc1SC(C[N+](=O)[O-])c1ccccc1 (stereo not drawn) | 64.1 | 23.3 | 31.2 | 3.36 | 24.7 | 21.6 | 36.2 | 42.6 | 32.1 | 34.6 | 22.5 | 11 | 14.8 | 1.86 | 12 | 5.18 | 4.64 | 5.32 | 16.9 | 18.3
CC[C@H](C)[C@H](NC(=O)NC(C)(C)C)C(=O)N(C)[C@H](C[C@@H](OC(C)=O)c1nc(C(=O)N[C@@H](Cc2ccccc2)C[C@H](C)C(=O)OC)cs1)C(C)C | 24.9 | 0.765 | > 25 | > 25 | > 25 | > 25 | > 25 | > 25 | > 25 | 1.83 | 1.79 | 0.107 | 1.12 | 0.507 | 0.82 | 1.15 | 0.718 | > 19 | 0.846 | 0.485
